Data reported in PubChem BioAssay AID1918995 (Molecular Pharmacology Branch, DTP, NCI, 2023).
One block for each compound: values may come before it.

Test system: 324938-238-R-J1-PDC complex spheroid growth, % test/control
Assay: Anticancer human tumor 324938-238-R-J1-PDC patient-derived bladder carcinoma cell line growth inhibition [AhR]
Details: for IC50: curve of first compound; for viability, T/C: stronger effect = lower value
How it was run: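 Complex tumor spheroids co-cultured with HUVEC and human MSC stroma; AhR antagonists tested in combination with standard-of-care and investigational agents. Top concentration at or near clinical Cmax (else 10 microM), half-log dilutions; growth expressed as percent test/control.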

[1] = second compound 0.1 µM, first compound 0.000949 µM
[2] = second compound 0.1 µM, first compound 0.003 µM
[3] = second compound 0.1 µM, first compound 0.00949 µM
[4] = second compound 0.1 µM, first compound 0.03 µM
[5] = second compound 0.1 µM, first compound 0.0949 µM
[6] = second compound 0.1 µM, first compound 0.3 µM
[7] = second compound 0.316 µM, first compound 0.000949 µM
[8] = second compound 0.316 µM, first compound 0.003 µM
[9] = second compound 0.316 µM, first compound 0.00949 µM
[10] = second compound 0.316 µM, first compound 0.03 µM
[11] = second compound 0.316 µM, first compound 0.0949 µM
[12] = second compound 0.316 µM, first compound 0.3 µM
[13] = second compound 1 µM, first compound 0.000949 µM
[14] = second compound 1 µM, first compound 0.003 µM
[15] = second compound 1 µM, first compound 0.00949 µM
[16] = second compound 1 µM, first compound 0.03 µM
[17] = second compound 1 µM, first compound 0.0949 µM
[18] = second compound 1 µM, first compound 0.3 µM
[19] = second compound 3.16 µM, first compound 0.000949 µM
[20] = second compound 3.16 µM, first compound 0.003 µM
[21] = second compound 3.16 µM, first compound 0.00949 µM
[22] = second compound 3.16 µM, first compound 0.03 µM
[23] = second compound 3.16 µM, first compound 0.0949 µM
[24] = second compound 3.16 µM, first compound 0.3 µM
[25] = second compound 10 µM, first compound 0.000949 µM
[26] = second compound 10 µM, first compound 0.003 µM
[27] = second compound 10 µM, first compound 0.00949 µM
[28] = second compound 10 µM, first compound 0.03 µM
[29] = second compound 10 µM, first compound 0.0949 µM
[30] = second compound 10 µM, first compound 0.3 µM
[31] = second compound 0.1 µM, first compound 0.0316 µM
[32] = second compound 0.1 µM, first compound 0.1 µM
[33] = second compound 0.1 µM, first compound 0.316 µM
[34] = second compound 0.1 µM, first compound 1 µM
[35] = second compound 0.1 µM, first compound 3.16 µM
[36] = second compound 0.1 µM, first compound 10 µM
[37] = second compound 0.316 µM, first compound 0.0316 µM
[38] = second compound 0.316 µM, first compound 0.1 µM
[39] = second compound 0.316 µM, first compound 0.316 µM
[40] = second compound 0.316 µM, first compound 1 µM
[41] = second compound 0.316 µM, first compound 3.16 µM
[42] = second compound 0.316 µM, first compound 10 µM
[43] = second compound 1 µM, first compound 0.0316 µM
[44] = second compound 1 µM, first compound 0.1 µM
[45] = second compound 1 µM, first compound 0.316 µM
[46] = second compound 1 µM, first compound 1 µM
[47] = second compound 1 µM, first compound 3.16 µM
[48] = second compound 1 µM, first compound 10 µM
[49] = second compound 3.16 µM, first compound 0.0316 µM
[50] = second compound 3.16 µM, first compound 0.1 µM
[51] = second compound 3.16 µM, first compound 0.316 µM
[52] = second compound 3.16 µM, first compound 1 µM
[53] = second compound 3.16 µM, first compound 3.16 µM
[54] = second compound 3.16 µM, first compound 10 µM
[55] = second compound 10 µM, first compound 0.0316 µM
[56] = second compound 10 µM, first compound 0.1 µM
[57] = second compound 10 µM, first compound 0.316 µM
[58] = second compound 10 µM, first compound 1 µM
[59] = second compound 10 µM, first compound 3.16 µM
[60] = second compound 10 µM, first compound 10 µM
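Also: spheroids exposed to agents for seven days before viability read.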

IC50 (second compound 0.1 µM): 3.21 nM
IC50 (second compound 0.316 µM): 2.48 nM
IC50 (second compound 1 µM): 1.88 nM
IC50 (second compound 3.16 µM): 1.25 nM
IC50 (second compound 10 µM): 1.44 nM
Compound: CCc1c2c(nc3ccc(O)cc13)-c1cc3c(c(=O)n1C2)COC(=O)[C@]3(O)CC + Cc1ccccc1N=Nc1ccc(NC(=O)c2ccnn2C)c(C)c1
viability, T/C [1]: 62.4%
viability, T/C [2]: 52%
viability, T/C [3]: 18.5%
viability, T/C [4]: 15.2%
viability, T/C [5]: 16.2%
viability, T/C [6]: 15.5%
viability, T/C [7]: 57.4%
viability, T/C [8]: 48.5%
viability, T/C [9]: 17.1%
viability, T/C [10]: 16.4%
viability, T/C [11]: 14.2%
viability, T/C [12]: 16.1%
viability, T/C [13]: 52.4%
viability, T/C [14]: 48.4%
viability, T/C [15]: 17.9%
viability, T/C [16]: 12.9%
viability, T/C [17]: 15.8%
viability, T/C [18]: 15.1%
viability, T/C [19]: 50.9%
viability, T/C [20]: 47.9%
viability, T/C [21]: 14.9%
viability, T/C [22]: 12.8%
viability, T/C [23]: 13.8%
viability, T/C [24]: 15.4%
viability, T/C [25]: 52.3%
viability, T/C [26]: 46%
viability, T/C [27]: 19.9%
viability, T/C [28]: 12.9%
viability, T/C [29]: 14%
viability, T/C [30]: 16.2%

IC50 (second compound 0.1 µM): 2230 nM
IC50 (second compound 0.316 µM): 1740 nM
IC50 (second compound 1 µM): 3830 nM
IC50 (second compound 3.16 µM): 2750 nM
IC50 (second compound 10 µM): 3090 nM
Compound: Nc1ccccc1NC(=O)c1ccc(CNC(=O)OCc2cccnc2)cc1 + Cc1ccccc1N=Nc1ccc(NC(=O)c2ccnn2C)c(C)c1
viability, T/C [31]: 104%
viability, T/C [32]: 118%
viability, T/C [33]: 98.1%
viability, T/C [34]: 62.1%
viability, T/C [35]: 48.6%
viability, T/C [36]: 38.3%
viability, T/C [37]: 93.7%
viability, T/C [38]: 110%
viability, T/C [39]: 104%
viability, T/C [40]: 55.5%
viability, T/C [41]: 50.2%
viability, T/C [42]: 37.8%
viability, T/C [43]: 91.8%
viability, T/C [44]: 94.5%
viability, T/C [45]: 85.8%
viability, T/C [46]: 64.6%
viability, T/C [47]: 56%
viability, T/C [48]: 38%
viability, T/C [49]: 82.9%
viability, T/C [50]: 102%
viability, T/C [51]: 79.1%
viability, T/C [52]: 58.4%
viability, T/C [53]: 53.7%
viability, T/C [54]: 43.1%
viability, T/C [55]: 86.8%
viability, T/C [56]: 91.4%
viability, T/C [57]: 77.4%
viability, T/C [58]: 57.7%
viability, T/C [59]: 56.4%
viability, T/C [60]: 40.5%

IC50 (second compound 0.1 µM): 37.1 nM
IC50 (second compound 0.316 µM): < 31.6 nM
IC50 (second compound 1 µM): < 31.6 nM
IC50 (second compound 3.16 µM): < 31.6 nM
IC50 (second compound 10 µM): < 31.6 nM
Compound: Nc1ccn(C2OC(CO)C(O)C2(F)F)c(=O)n1 (stereo not given) + Cc1ccccc1N=Nc1ccc(NC(=O)c2ccnn2C)c(C)c1
viability, T/C [31]: 53.1%
viability, T/C [32]: 32.3%
viability, T/C [33]: 15.5%
viability, T/C [34]: 14.1%
viability, T/C [35]: 10.4%
viability, T/C [36]: 8.56%
viability, T/C [37]: 47.2%
viability, T/C [38]: 24.7%
viability, T/C [39]: 15.4%
viability, T/C [40]: 12.3%
viability, T/C [41]: 10.3%
viability, T/C [42]: 8.15%
viability, T/C [43]: 43.7%
viability, T/C [44]: 34.1%
viability, T/C [45]: 16.8%
viability, T/C [46]: 13.2%
viability, T/C [47]: 9.31%
viability, T/C [48]: 7.14%
viability, T/C [49]: 46.6%
viability, T/C [50]: 32.8%
viability, T/C [51]: 15.7%
viability, T/C [52]: 12.6%
viability, T/C [53]: 10.9%
viability, T/C [54]: 7.52%
viability, T/C [55]: 44.9%
viability, T/C [56]: 34.8%
viability, T/C [57]: 19.2%
viability, T/C [58]: 14.3%
viability, T/C [59]: 13.1%
viability, T/C [60]: 8.08%

IC50 (second compound 0.1 µM): > 10000 nM
IC50 (second compound 0.316 µM): > 10000 nM
IC50 (second compound 1 µM): > 10000 nM
IC50 (second compound 3.16 µM): > 10000 nM
IC50 (second compound 10 µM): > 10000 nM
Compound: O=C(c1cc(Cc2n[nH]c(=O)c3ccccc23)ccc1F)N1CCN(C(=O)C2CC2)CC1 + Cc1ccccc1N=Nc1ccc(NC(=O)c2ccnn2C)c(C)c1
viability, T/C [31]: 98%
viability, T/C [32]: 105%
viability, T/C [33]: 101%
viability, T/C [34]: 103%
viability, T/C [35]: 87.6%
viability, T/C [36]: 75.5%
viability, T/C [37]: 99.4%
viability, T/C [38]: 99.8%
viability, T/C [39]: 91.7%
viability, T/C [40]: 92.1%
viability, T/C [41]: 89.8%
viability, T/C [42]: 68.5%
viability, T/C [43]: 94.4%
viability, T/C [44]: 100%
viability, T/C [45]: 95.5%
viability, T/C [46]: 90.6%
viability, T/C [47]: 78.7%
viability, T/C [48]: 72.3%
viability, T/C [49]: 84.5%
viability, T/C [50]: 79%
viability, T/C [51]: 87.3%
viability, T/C [52]: 84.5%
viability, T/C [53]: 74.4%
viability, T/C [54]: 65.2%
viability, T/C [55]: 84.6%
viability, T/C [56]: 83.4%
viability, T/C [57]: 81.2%
viability, T/C [58]: 85.1%
viability, T/C [59]: 72.4%
viability, T/C [60]: 65.9%

More lines, now with the values behind:

Compound: CC(C)CC(NC(=O)C(Cc1ccccc1)NC(=O)c1cnccn1)B(O)O (stereo not given) + Cc1ccccc1N=Nc1ccc(NC(=O)c2ccnn2C)c(C)c1
IC50 (second compound 0.1 µM): 5.19 nM
IC50 (second compound 0.316 µM): 4.9 nM
IC50 (second compound 1 µM): 4.83 nM
IC50 (second compound 3.16 µM): 4.38 nM
IC50 (second compound 10 µM): 4.51 nM
viability, T/C [1]: 97.5%
viability, T/C [2]: 94.3%
viability, T/C [3]: 1.29%
viability, T/C [4]: 0.07%
viability, T/C [5]: 0.09%
viability, T/C [6]: 0.27%
viability, T/C [7]: 92.3%
viability, T/C [8]: 84.6%
viability, T/C [9]: 3.23%
viability, T/C [10]: 0.04%
viability, T/C [11]: 0.05%
viability, T/C [12]: 0.19%
viability, T/C [13]: 95.1%
viability, T/C [14]: 84.1%
viability, T/C [15]: 1.49%
viability, T/C [16]: 0.04%
viability, T/C [17]: 0.07%
viability, T/C [18]: 0.17%
viability, T/C [19]: 84.2%
viability, T/C [20]: 73.4%
viability, T/C [21]: 2.32%
viability, T/C [22]: 0.06%
viability, T/C [23]: 0.06%
viability, T/C [24]: 0.19%
viability, T/C [25]: 85.9%
viability, T/C [26]: 76.1%
viability, T/C [27]: 2.47%
viability, T/C [28]: 0.24%
viability, T/C [29]: 0.36%
viability, T/C [30]: 0.32%

Compound: O=C(C=Cc1cccc(S(=O)(=O)Nc2ccccc2)c1)NO + Cc1ccccc1N=Nc1ccc(NC(=O)c2ccnn2C)c(C)c1
IC50 (second compound 0.1 µM): 3110 nM
IC50 (second compound 0.316 µM): 2790 nM
IC50 (second compound 1 µM): 3060 nM
IC50 (second compound 3.16 µM): 2570 nM
IC50 (second compound 10 µM): 2790 nM
viability, T/C [31]: 103%
viability, T/C [32]: 91.5%
viability, T/C [33]: 98.4%
viability, T/C [34]: 65.5%
viability, T/C [35]: 53.8%
viability, T/C [36]: 33.4%
viability, T/C [37]: 98%
viability, T/C [38]: 102%
viability, T/C [39]: 81.1%
viability, T/C [40]: 69%
viability, T/C [41]: 48.1%
viability, T/C [42]: 32.5%
viability, T/C [43]: 93.3%
viability, T/C [44]: 99.1%
viability, T/C [45]: 84.4%
viability, T/C [46]: 75.8%
viability, T/C [47]: 48.2%
viability, T/C [48]: 33.2%
viability, T/C [49]: 84.1%
viability, T/C [50]: 84.6%
viability, T/C [51]: 83.5%
viability, T/C [52]: 66.3%
viability, T/C [53]: 47.2%
viability, T/C [54]: 38.6%
viability, T/C [55]: 78.4%
viability, T/C [56]: 85.2%
viability, T/C [57]: 71.3%
viability, T/C [58]: 62.1%
viability, T/C [59]: 49.6%
viability, T/C [60]: 36.3%
